Source: patent publication US20240140991A1, “ANTIBIOTIC NATURAL PRODUCT ANALOGUES” (THE QUEEN'S UNIVERSITY OF BELFAST, priority 2021, published 2024)
In brackets after ≈: the same amount, converted by molar mass. Starred links: 1 amine or outer side, 2 acyl side, 3 side chain; linkers in the order of their positions; H or OH if unused. Non-standard residues stand in square brackets, D forms with d. Residues, ends and D or L forms follow the SMILES beside them. *: point of attachment. X1 = C[C@@H](N=[N+]=[N-])[C@H](N[*:1])C(=O)[*:2]; Octanoyl(7-Me) = CC(C)CCCCCC(=O)*; dOrn = NCCC[C@@H](N)C(=O)O; Orn = NCCC[C@H](N)C(=O)O; Dap = NC[C@H](N)C(=O)O; Alloc = C=CCOC(=O)*; OAll = C=CCO*

test system: Escherichia coli ATCC 25922; format: cell-based; details: ATCC 25922
Experimental: Minimum inhibitory concentration (MIC) was determined by broth microdilution according to CLSI guidelines. Blood agar plates were inoculated with glycerol stocks of Escherichia coli ATCC 25922, E. coli ATCC 25922 MCR-1, E. coli MCR-1 (clinical isolate from Utrecht Medical Center, NL), E. coli EQAS MCR-2 (clinical isolate from Wageningen University and Research, NL), Kiebsielia pneumoniae ATCC 11228, K. pneumoniae ATCC 13883, K. pneumonia 2048 (clinical isolate from Vrije Universiteit Amsterdam Medical Center, NL), K. pneumonia JS-123 (clinical isolate from Utrecht Medical Center, NL), Acinetobacter baumannii ATCC 17961, A. baumannil ATCC 17978, A. baumannii 2018-006 (clinical isolate from Rijksinstituut voor Volksgezondheid en Milieu, NL), A. baumannii MDR (clinical isolate from Vrije Universiteit Amsterdam Medical Center, NL), Pseudomonas aeruginosa ATCC 27853, P. aeruginosa PAO1, P. aeruginosa NRZ-03961 (Reference strain from Das Nationale Referenzzentrum für gramnegative Krankenhauserreger, DE), P. aeruginosa M-120 (clinical isolate from Leiden University Medical Center, NL) and Staphylococcus aureus USA300 (clinical isolate from Texas Children's Hospitalm, USA). E. coli 25922 MCR1 was grown on LB agar supplemented with kanamycin. The inoculated agar plates were then incubated for 16 hours at 37° C. Individually grown colonies were subsequently used to inoculate 3 mL aliquots of TSB that were then incubated at 37° C. with shaking at 220 rpm. In parallel, the compounds to be assessed were serially diluted with Mueller-Hinton broth (MHB) in polypropylene 96-well plates (50 μL in each well). Once the OD600 of the bacterial suspensions reached 0.5, the bacteria were diluted with MHB (final concentration 2×10^5 CFU mL^−1) and added to the microplates containing the test compounds (50 μL to each well, final volume: 100 μL). The well-plates were sealed with an adhesive membrane and after 16 hours of incubation at 37° C. with shaking at 220 rpm the wells were visually inspected for bacterial growth. MIC values were defined as the lowest concentration of the compound that prevented visible growth of bacteria.

Compound | Minimum inhibitory concentration (MIC)
C=CCOC(=O)NC[C@H](NC(=O)[C@H](Cc1c[nH]c2ccccc12)NC(=O)[C@@H](CCCN)NC(=O)CNC(=O)[C@H](CCCN)NC(=O)[C@@H](CCCN)NC(=O)[C@@H](Cc1c[nH]c2ccccc12)NC(=O)[C@@H](Cc1ccc(O)cc1)NC(=O)[C@@H](CO)NC(=O)CCCCCC(C)C)C(=O)N[C@H](C(=O)N[C@@H](CC(N)=O)C(=O)NCC(=O)NCC(N)=O)[C@@H](C)CC [Dap(Alloc)9-CONH2] ({Octanoyl(7-Me)}-[dS][dY][dW][dOrn][Orn]G[dOrn]W[Dap](Alloc)INGG-NH2) | 2 µg/mL (≈ 1.18 µM)
C=CCOC(=O)CNC(=O)CNC(=O)[C@H](CC(N)=O)NC(=O)[C@@H](NC(=O)[C@H](CNC(=O)OCC=C)NC(=O)[C@H](Cc1c[nH]c2ccccc12)NC(=O)[C@@H](CCCN)NC(=O)CNC(=O)[C@H](CCCN)NC(=O)[C@@H](CCCN)NC(=O)[C@@H](Cc1c[nH]c2ccccc12)NC(=O)[C@@H](Cc1ccc(O)cc1)NC(=O)[C@@H](CO)NC(=O)CCCCCC(C)C)[C@@H](C)CC [Dap(Alloc)9-COOAll] ({Octanoyl(7-Me)}-[dS][dY][dW][dOrn][Orn]G[dOrn]W[Dap](Alloc)INGG-OAll) | 2 µg/mL (≈ 1.15 µM)
C=CCOC(=O)NC[C@H](NC(=O)[C@H](Cc1c[nH]c2ccccc12)NC(=O)[C@@H](CCCN)NC(=O)CNC(=O)[C@H](CCCN)NC(=O)[C@@H](CCCN)NC(=O)[C@@H](Cc1c[nH]c2ccccc12)NC(=O)[C@@H](Cc1ccc(O)cc1)NC(=O)[C@@H](CO)NC(=O)CCCCCC(C)C)C(=O)N[C@H](C(=O)N[C@@H](CC(N)=O)C(=O)NCC(=O)NCC(=O)O)[C@@H](C)CC [Dap(Alloc)9-COOH] ({Octanoyl(7-Me)}-[dS][dY][dW][dOrn][Orn]G[dOrn]W[Dap](Alloc)INGG-OH) | 2 µg/mL (≈ 1.18 µM)
C=CCOC(=O)NC[C@H](NC(=O)[C@H](Cc1c[nH]c2ccccc12)NC(=O)[C@@H](CCCN)NC(=O)CNC(=O)[C@H](CCCN)NC(=O)[C@@H](CCCN)NC(=O)[C@@H](Cc1c[nH]c2ccccc12)NC(=O)[C@@H](Cc1ccc(O)cc1)NC(=O)[C@@H](CO)NC(=O)CCCCCC(C)C)C(=O)N[C@H](C(=O)N[C@@H](CC(N)=O)C(=O)NCC(=O)NCC(N)=O)[C@@H](C)CC [Dap(Alloc)] ({Octanoyl(7-Me)}-[dS][dY][dW][dOrn][Orn]G[dOrn]W[Dap](Alloc)INGG-NH2) | 1 to 2 µg/mL
CC[C@H](C)[C@H](NC(=O)[C@H](CCSC)NC(=O)[C@H](Cc1c[nH]c2ccccc12)NC(=O)[C@@H](CCCN)NC(=O)CNC(=O)[C@H](CCCN)NC(=O)[C@@H](CCCN)NC(=O)[C@@H](Cc1c[nH]c2ccccc12)NC(=O)[C@@H](Cc1ccc(O)cc1)NC(=O)[C@@H](CO)NC(=O)CCCCCC(C)C)C(=O)N[C@@H](CC(N)=O)C(=O)NCC(=O)NCC(N)=O [Met9-CONH2] ({Octanoyl(7-Me)}-[dS][dY][dW][dOrn][Orn]G[dOrn]WMINGG-NH2) | 2 µg/mL (≈ 1.21 µM)
CC[C@H](C)[C@H](NC(=O)[C@H](Cc1ccccc1)NC(=O)[C@H](Cc1c[nH]c2ccccc12)NC(=O)[C@@H](CCCN)NC(=O)CNC(=O)[C@H](CCCN)NC(=O)[C@@H](CCCN)NC(=O)[C@@H](Cc1c[nH]c2ccccc12)NC(=O)[C@@H](Cc1ccc(O)cc1)NC(=O)[C@@H](CO)NC(=O)CCCCCC(C)C)C(=O)N[C@@H](CC(N)=O)C(=O)NCC(=O)NCC(N)=O [Phe9-CONH2] ({Octanoyl(7-Me)}-[dS][dY][dW][dOrn][Orn]G[dOrn]WFINGG-NH2) | 2 µg/mL (≈ 1.2 µM)
CC[C@H](C)[C@H](NC(=O)[C@@H](NC(=O)[C@H](Cc1c[nH]c2ccccc12)NC(=O)[C@@H](CCCN)NC(=O)CNC(=O)[C@H](CCCN)NC(=O)[C@@H](CCCN)NC(=O)[C@@H](Cc1c[nH]c2ccccc12)NC(=O)[C@@H](Cc1ccc(O)cc1)NC(=O)[C@@H](CO)NC(=O)CCCCCC(C)C)[C@@H](C)O)C(=O)N[C@@H](CC(N)=O)C(=O)NCC(=O)NCC(N)=O [Thr9-CONH2] ({Octanoyl(7-Me)}-[dS][dY][dW][dOrn][Orn]G[dOrn]WTINGG-NH2) | 2 to 4 µg/mL
CC[C@H](C)[C@H](NC(=O)[C@H](Cc1c[nH]c2ccccc12)NC(=O)[C@H](Cc1c[nH]c2ccccc12)NC(=O)[C@@H](CCCN)NC(=O)CNC(=O)[C@H](CCCN)NC(=O)[C@@H](CCCN)NC(=O)[C@@H](Cc1c[nH]c2ccccc12)NC(=O)[C@@H](Cc1ccc(O)cc1)NC(=O)[C@@H](CO)NC(=O)CCCCCC(C)C)C(=O)N[C@@H](CC(N)=O)C(=O)NCC(=O)NCC(N)=O [Trp9-CONH2] ({Octanoyl(7-Me)}-[dS][dY][dW][dOrn][Orn]G[dOrn]WWINGG-NH2) | 4 µg/mL (≈ 2.34 µM)

Continued, values first:

Minimum inhibitory concentration (MIC) | Compound
4 µg/mL (≈ 2.43 µM) | CC[C@H](C)[C@H](NC(=O)[C@H](CCC(N)=O)NC(=O)[C@H](Cc1c[nH]c2ccccc12)NC(=O)[C@@H](CCCN)NC(=O)CNC(=O)[C@H](CCCN)NC(=O)[C@@H](CCCN)NC(=O)[C@@H](Cc1c[nH]c2ccccc12)NC(=O)[C@@H](Cc1ccc(O)cc1)NC(=O)[C@@H](CO)NC(=O)CCCCCC(C)C)C(=O)N[C@@H](CC(N)=O)C(=O)NCC(=O)NCC(N)=O [Gln9-CONH2] ({Octanoyl(7-Me)}-[dS][dY][dW][dOrn][Orn]G[dOrn]WQINGG-NH2)
8 µg/mL (≈ 4.73 µM) | C=CCOC(=O)CC[C@H](NC(=O)[C@H](Cc1c[nH]c2ccccc12)NC(=O)[C@@H](CCCN)NC(=O)CNC(=O)[C@H](CCCN)NC(=O)[C@@H](CCCN)NC(=O)[C@@H](Cc1c[nH]c2ccccc12)NC(=O)[C@@H](Cc1ccc(O)cc1)NC(=O)[C@@H](CO)NC(=O)CCCCCC(C)C)C(=O)N[C@H](C(=O)N[C@@H](CC(N)=O)C(=O)NCC(=O)NCC(N)=O)[C@@H](C)CC [Glu(OAll)9-CONH2] ({Octanoyl(7-Me)}-[dS][dY][dW][dOrn][Orn]G[dOrn]WE(OAll)INGG-NH2)
2 to 4 µg/mL | CC[C@H](C)[C@H](NC(=O)[C@H](CC(C)C)NC(=O)[C@H](Cc1c[nH]c2ccccc12)NC(=O)[C@@H](CCCN)NC(=O)CNC(=O)[C@H](CCCN)NC(=O)[C@@H](CCCN)NC(=O)[C@@H](Cc1c[nH]c2ccccc12)NC(=O)[C@@H](Cc1ccc(O)cc1)NC(=O)[C@@H](CO)NC(=O)CCCCCC(C)C)C(=O)N[C@@H](CC(N)=O)C(=O)NCC(=O)NCC(N)=O [Leu9-CONH2] ({Octanoyl(7-Me)}-[dS][dY][dW][dOrn][Orn]G[dOrn]WLINGG-NH2)
4 to 8 µg/mL | CC[C@H](C)[C@H](NC(=O)[C@@H](NC(=O)[C@H](Cc1c[nH]c2ccccc12)NC(=O)[C@@H](CCCN)NC(=O)CNC(=O)[C@H](CCCN)NC(=O)[C@@H](CCCN)NC(=O)[C@@H](Cc1c[nH]c2ccccc12)NC(=O)[C@@H](Cc1ccc(O)cc1)NC(=O)[C@@H](CO)NC(=O)CCCCCC(C)C)[C@@H](C)O)C(=O)N[C@@H](CC(N)=O)C(=O)NCC(=O)NCC(=O)O [Linear Laterocidine (Thr9-COOH)] ({Octanoyl(7-Me)}-[dS][dY][dW][dOrn][Orn]G[dOrn]WTINGG-OH)
2 µg/mL (≈ 1.21 µM) | CC[C@H](C)[C@H](NC(=O)[C@@H](NC(=O)[C@H](Cc1c[nH]c2ccccc12)NC(=O)[C@@H](CCCN)NC(=O)CNC(=O)[C@H](CCCN)NC(=O)[C@@H](CCCN)NC(=O)[C@@H](Cc1c[nH]c2ccccc12)NC(=O)[C@@H](Cc1ccc(O)cc1)NC(=O)[C@@H](CO)NC(=O)CCCCCC(C)C)[C@@H](C)N=[N+]=[N-])C(=O)N[C@@H](CC(N)=O)C(=O)NCC(=O)NCC(N)=O [MeDap(N3)9-CONH2] ({Octanoyl(7-Me)}-[dS][dY][dW][dOrn][Orn]G[dOrn]W[X1]INGG-NH2)
2 µg/mL (≈ 1.24 µM) | CC[C@H](C)[C@H](NC(=O)[C@H](CO)NC(=O)[C@H](Cc1c[nH]c2ccccc12)NC(=O)[C@@H](CCCN)NC(=O)CNC(=O)[C@H](CCCN)NC(=O)[C@@H](CCCN)NC(=O)[C@@H](Cc1c[nH]c2ccccc12)NC(=O)[C@@H](Cc1ccc(O)cc1)NC(=O)[C@@H](CO)NC(=O)CCCCCC(C)C)C(=O)N[C@@H](CC(N)=O)C(=O)NCC(=O)NCC(N)=O [Ser9-CONH2] ({Octanoyl(7-Me)}-[dS][dY][dW][dOrn][Orn]G[dOrn]WSINGG-NH2)
2 µg/mL (≈ 1.23 µM) | CC[C@H](C)[C@H](NC(=O)[C@@H](NC(=O)[C@H](Cc1c[nH]c2ccccc12)NC(=O)[C@@H](CCCN)NC(=O)CNC(=O)[C@H](CCCN)NC(=O)[C@@H](CCCN)NC(=O)[C@@H](Cc1c[nH]c2ccccc12)NC(=O)[C@@H](Cc1ccc(O)cc1)NC(=O)[C@@H](CO)NC(=O)CCCCCC(C)C)[C@@H](C)O)C(=O)N[C@@H](CC(N)=O)C(=O)NCC(=O)NCC(N)=O [Thr (linear laterocidine)] ({Octanoyl(7-Me)}-[dS][dY][dW][dOrn][Orn]G[dOrn]WTINGG-NH2; N-terminus and C-terminus assumed)
